# Measured values from patent US20240076299A1, “TUBERCULATIN ANALOGS AS ANTIVIRAL AGENTS” (priority 2020, published 2024).
# Where two headings read alike, the source gives them in different places.
# Columns and labels:
# HIV clinical strains = details: background statement; read-out: EC50 against broad HIV clinical strains; cited from earlier work
# VSV = experiment: microbe, parasite or virus in culture; format: cell-based; details: Vesicular stomatitis virus, read-out: EC50 (nM) VSV
# AIV = experiment: microbe, parasite or virus in culture; format: cell-based, avian influenza virus (H5N1); details: Influenza A virus, read-out: EC50 (nM) AIV
# SARS-CoV-2 [1] = experiment: microbe, parasite or virus in culture; details: Severe acute respiratory syndrome coronavirus 2, 48 h
# [2] = Cytotoxicity evaluation using the SRB assay; details: human, triplicate
# HIV = experiment: microbe, parasite or virus in culture; format: cell-based, HIV-1
# SARS-CoV-2 [3] = test system: SARS-CoV-2
# A549 cells [4] = experiment: Cytotoxicity evaluation using the SRB assay; details: Table 1; inhibition of cell growth of host A549 cells by 50%; triplicate
# A549 cells [5] = details: human, 2 days
# in vitro = details: human
# [6] = read-out: EC50 (2000 nM) SARS-COV-2, % inhibitory effect at 2000 nM against SARS-CoV-2, triplicate
# [7] = read-out: EC50 (2000 nM) SARS-COV-2
smiles,measurement,setting,value
"Cc1cn([C@H]2C[C@H](N=[N+]=[N-])[C@@H](CO)O2)c(=O)[nH]c1=O [Zidovudine (AZT), Zidovudine]",EC50,HIV clinical strains,77 to 95 nM
COc1cc2c(O[C@H]3OC[C@@]4(CN=[N+]=[N-])OC(C)(C)O[C@@H]34)c3c(c(-c4ccc5c(c4)OCO5)c2cc1OC)C(=O)OC3 [Compound 25],EC50,VSV,4.52 nM
same,EC50,AIV,0.72 nM
same,inhibition at 2 µM,SARS-CoV-2 [1]; [6],> 80%
same,CC50 at 2 days,"[2]; A549 cells, CC50 (nM) A549, Table 2, host A549 cells",648 nM
same,CC50 at 2 days,"[2]; A549 cells, CC50 (nM), Table 1, inhibition of cell growth of host A549 cells by 50%",1650 nM
same,EC50,HIV; Human immunodeficiency virus 1,441 nM
same,activity against SARS-CoV-2 (conclusion),SARS-CoV-2 [3],active molecules
"COc1cc2c(OC3OCC(O)(COC4OCC(O)C(O)C4O)C3OC3OCC(O)C(O)C3O)c3c(c(-c4cc5c(cc4O)OCO5)c2cc1OC)C(=O)OC3 (single isomer, unassigned) [Compound 52]",CC50,A549 cells [4],> 25000 nM
same,EC50,HIV,> 25000 nM
COc1cc2c(O[C@@H]3OC[C@@]4(COC(C)=O)OC(c5ccccc5)O[C@@H]34)c3c(c(-c4ccc5c(c4)OCO5)c2cc1OC)C(=O)OC3 (stereo partly shown) [Compound 20],EC50,VSV,53.8 nM
same,EC50,AIV,39.9 nM
same,inhibition at 2 µM,SARS-CoV-2 [1]; [6],> 80%
same,CC50 at 2 days,"[2]; CC50 (nM) A549, Table 2, host A549 cells",1570 nM
same,CC50 at 2 days,"[2]; CC50 (nM), Table 1, inhibition of cell growth of host A549 cells by 50%",2580 nM
same,EC50,HIV; Human immunodeficiency virus 1,280 nM
same,activity against SARS-CoV-2 (conclusion),SARS-CoV-2 [3],active molecules
"COc1cc2c(OC3OCC(O)(COC4OCC(O)C(O)C4O)C3OC3OCC(O)C(OC4OCC(O)(CO)C4O)C3O)c3c(c(-c4cc5c(cc4O)OCO5)c2cc1OC)C(=O)OC3 (single isomer, unassigned) [Compound 54]",EC50,HIV,> 25000 nM
same,CC50,A549 cells [5],> 25000 nM
"COc1cc2c(OC3OCC(O)(CO)C3O)c3c(c(-c4cc5c(cc4O)OCO5)c2cc1OC)C(=O)OC3 (single isomer, unassigned) [Compound 46]",EC50,HIV,48600 nM
same,CC50,A549 cells [5],> 50000 nM
"COc1cc2c(O[C@@H]3OC[C@](O)(CO)[C@H]3O)c3c(c(-c4ccc5c(c4)OCO5)c2cc1OC)C(=O)OC3 [Tuberculatin (1), tuberculatin]",CC50,A549 cells [4],3260 nM
same,EC50,HIV; read-out: EC50,220 nM
COc1cc2c(O[C@H]3OC[C@@]4(CNC(C)=O)OC(C)(C)O[C@@H]34)c3c(c(-c4ccc5c(c4)OCO5)c2cc1OC)C(=O)OC3 [Compound 32],CC50 at 2 days,in vitro; CC50 (nM),441 nM
same,inhibition at 2 µM,SARS-CoV-2 [1]; [7],97.4%
same,EC50,HIV; Human immunodeficiency virus 1,80.9 nM
same,activity against SARS-CoV-2 (conclusion),SARS-CoV-2 [3],active molecules
"COc1cc2c(OC3OCC(O)(CO)C3O)c3c(c(-c4cc5c(cc4O)OCO5)c2cc1OC)C(=O)OC3 (single isomer, unassigned) [Compound 47]",EC50,HIV,> 25000 nM
same,CC50,A549 cells [5],> 25000 nM
COc1cc2c(O[C@H]3OC[C@@]4(COC(=O)c5ccccc5)OC(C)(C)O[C@@H]34)c3c(c(-c4ccc5c(c4)OCO5)c2cc1OC)C(=O)OC3 [Compound 27],EC50,VSV,20.8 nM
same,CC50 at 2 days,in vitro; CC50 (nM),2220 nM
same,CC50 at 2 days,in vitro; CC50 (nM) A549,379 nM
same,EC50,AIV,16.9 nM
same,inhibition at 2 µM,SARS-CoV-2 [1]; [7],93%
same,EC50,HIV; Human immunodeficiency virus 1,384 nM
same,activity against SARS-CoV-2 (conclusion),SARS-CoV-2 [3],active molecules
"COc1cc2c(OC3OCC(O)(CO)C3O)c3c(c(-c4cc5c(cc4O)OCO5)c2cc1OC)C(=O)OC3 (single isomer, unassigned) [Compound 48]",EC50,HIV,> 25000 nM
same,CC50,A549 cells [5],> 25000 nM
"COc1cc2c(OC3OCC(O)(CO)C3OC3OCC(O)C(O)C3O)c3c(c(-c4cc5c(cc4O)OCO5)c2cc1OC)C(=O)OC3 (single isomer, unassigned) [Compound 50]",EC50,HIV,23100 nM
same,CC50,A549 cells [5],> 25000 nM
